ChEMBL document CHEMBL3588786, “Synthesis and Biological evaluation of novel 4β-[(5-substituted)-1,2,3,4-tetrazolyl] podophyllotoxins as anticancer compounds” (Bioorg Med Chem Lett, 2015)
The source made the active and inactive calls. The calls are words filed in the database; no cut-off is given here.

Legend:
HeLa = test: Cytotoxicity against human HeLa cells assessed as cell viability by SRB assay; assay type: functional, cell-based
MCF7 = test: Cytotoxicity against human MCF7 cells assessed as cell viability by SRB assay; assay type: functional, cell-based
A549 [1] = test: Induction of cell cycle arrest in human A549 cells assessed as accumulation at G0 phase at 5 uM after 24 hrs by flow cytometry; assay type: functional
A549 [2] = test: Cytotoxicity against human A549 cells assessed as cell viability by SRB assay; assay type: functional, cell-based
A549 [3] = test: Induction of cell cycle arrest in human A549 cells assessed as accumulation at S phase at 5 uM after 24 hrs by flow cytometry; assay type: functional
Tubulin (Bos taurus) = Tubulin (Bos taurus) (UniProt Q6B856+Q862F3); test: Inhibition of bovine brain tubulin polymerization assessed as increase in fluorescence intensity at 5 uM relative to control
SK-N-SH = test: Cytotoxicity against human SK-N-SH cells assessed as cell viability by SRB assay; assay type: functional, cell-based
A549 [4] = test: Induction of cell cycle arrest in human A549 cells assessed as accumulation at G1 phase at 5 uM after 24 hrs by flow cytometry; assay type: functional
A549 [5] = test: Induction of cell cycle arrest in human A549 cells assessed as accumulation at G2/M phase at 5 uM after 24 hrs by flow cytometry; assay type: functional
A549 [6] = test: Antimitotic activity against human A549 cells at 5 uM after 12 hrs by flow cytometry; assay type: functional, cell-based

SMILES | IC50 (HeLa) [µM] | IC50 (MCF7) [µM] | Activity (A549 [1]) [%] | IC50 (A549 [2]) [µM] | Activity (A549 [3]) [%] | inhibition (Tubulin (Bos taurus)) [%] | IC50 (SK-N-SH) [µM] | Activity (A549 [4]) [%] | Activity (A549 [5]) [%] | Activity (A549 [6])
COc1cc([C@@H]2c3cc4c(cc3[C@@H](n3nnnc3C(=O)c3ccccc3)[C@H]3COC(=O)[C@H]23)OCO4)cc(OC)c1OC | 4.76 | 6.89 | 11.01 | 4.29 | 5.73 | 72.5 | 4.68 | 13.88 | 69.37 | 
CC(=O)O[C@H]1C(=O)[C@@]2(C)[C@H]([C@H](OC(=O)c3ccccc3)[C@]3(O)C[C@H](OC(=O)[C@H](O)[C@@H](NC(=O)c4ccccc4)c4ccccc4)C(C)=C1C3(C)C)[C@]1(OC(C)=O)CO[C@@H]1C[C@@H]2O [PACLITAXEL] |  |  | 9.81 |  | 6.01 |  |  | 13.7 | 70.48 | 
COc1cccc2c1C(=O)c1c(O)c3c(c(O)c1C2=O)C[C@@](O)(C(=O)CO)C[C@@H]3O[C@H]1C[C@H](N)[C@H](O)[C@H](C)O1 [DOXORUBICIN] | 10.8 | 12.3 |  | 6.13 |  |  | 7.36 |  |  | 
COc1cc([C@@H]2c3cc4c(cc3[C@@H](n3nnnc3C(=O)OCc3ccccc3)[C@H]3COC(=O)[C@H]23)OCO4)cc(OC)c1O | 4.77 | 9.44 | 8.61 | 2.98 | 8.25 | 29.8 | 6.16 | 19.95 | 63.19 | 
COc1cc([C@@H]2c3cc4c(cc3[C@@H](n3nnnc3C(=O)c3ccccc3)[C@H]3COC(=O)[C@H]23)OCO4)cc(OC)c1O | 3.61 | 7.02 | 9.66 | 2.71 | 6.49 | 11.5 | 3.49 | 19.89 | 63.93 | Active
COc1cc([C@@H]2c3cc4c(cc3[C@@H](n3nnnc3S(=O)(=O)c3ccc(C)cc3)[C@H]3COC(=O)[C@H]23)OCO4)cc(OC)c1OC | 3.15 | 6.99 | 19.96 | 2.89 | 5.22 | 0.73 | 5.31 | 20.09 | 54.73 | Active
CCOC(=O)c1nnnn1[C@@H]1c2cc3c(cc2[C@@H](c2cc(OC)c(OC)c(OC)c2)[C@H]2C(=O)OC[C@@H]21)OCO3 | 4.76 | 7.47 | 12.44 | 2.4 | 5.52 | 99.2 | 3.61 | 16.44 | 65.6 | 
COc1cc([C@@H]2c3cc4c(cc3[C@H](O)[C@H]3COC(=O)[C@H]23)OCO4)cc(OC)c1OC [PODOFILOX] | 1.92 | 3.34 | 9.48 | 2.55 | 10.03 | 93.9 | 7.92 | 19.71 | 60.77 | 
COC(=O)Nc1nc2ccc(C(=O)c3cccs3)cc2n1C |  |  |  |  |  | 65.3 |  |  |  | 
COc1cc([C@@H]2c3cc4c(cc3[C@@H](n3nnnc3C(=O)OCc3ccccc3)[C@H]3COC(=O)[C@H]23)OCO4)cc(OC)c1OC | 4.01 | 4.85 | 10.28 | 2.48 | 6.61 | 57.5 | 4.58 | 17.77 | 65.34 | 
COC(=O)c1nnnn1[C@@H]1c2cc3c(cc2[C@@H](c2cc(OC)c(OC)c(OC)c2)[C@H]2C(=O)OC[C@@H]21)OCO3 | 5.25 | 6.97 | 19.92 | 3.11 | 4.61 | 12.4 | 6.5 | 30.01 | 45.43 | Active
COC(=O)c1nnnn1[C@@H]1c2cc3c(cc2[C@@H](c2cc(OC)c(O)c(OC)c2)[C@H]2C(=O)OC[C@@H]21)OCO3 | 3.95 | 5.27 | 9.96 | 2.44 | 6.38 | 28.3 | 5.64 | 15.18 | 68.48 | 
CCOC(=O)c1nnnn1[C@@H]1c2cc3c(cc2[C@@H](c2cc(OC)c(O)c(OC)c2)[C@H]2C(=O)OC[C@@H]21)OCO3 | 29.1 | 12.4 | 7.3 | 6.49 | 6 | 2.68 | 25.9 | 11.83 | 74.86 | Active
COc1cc([C@@H]2c3cc4c(cc3[C@@H](n3nnnc3S(=O)(=O)c3ccc(C)cc3)[C@H]3COC(=O)[C@H]23)OCO4)cc(OC)c1O | 3.05 | 5.29 | 11 | 3.29 | 7.28 | 22.5 | 3.44 | 19.28 | 62.48 | 
